Source: patent US20220372014A1, “NEUROPROTECTIVE COMPOUNDS AND METHODS OF USE THEREOF” (The Johns Hopkins University, priority 2019, published 2022)

How the values were obtained:
MIF = biological target: T1, MIF (Homo sapiens, UniProt P14174); assay: Nuclease assay of Example 3 (MIF inhibitory activity, Table 4); assay type: biochemical; design: (%) inhibition of MIF nuclease activity: concentration or dose not given beside the values; conditions: nuclease assay of Example 3
T1 sequence (P14174 1-115): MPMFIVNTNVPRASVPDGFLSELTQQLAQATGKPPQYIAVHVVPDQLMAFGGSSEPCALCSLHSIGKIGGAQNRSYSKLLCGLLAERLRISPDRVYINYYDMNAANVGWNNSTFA
Experimental: A rapafucin library was synthesized as described in WO2017/136708 and Guo et al. (2018) Nat. Chem. 11:254-63. The hybrid macrocyclic library consisted of 45,000 compounds in pools of 15 individual compounds. The library compounds were screened for MIF inhibitory activity using a nuclease assay as detailed in FIG. 1 and below.
Nuclease assay: Human genomic DNA (200 ng/reaction, Promega), pcDNA (200 ng/reaction) or PS^30 and its related and non-related substrates (1 μM) was incubated with wild type MIF or its variants at a final concentration of 0.25-8 μM as indicated in 10 mM Tris-HCl buffer (pH 7.0) containing 10 mM MgCl2 and 1 mM DTT or specific buffer as indicated, for 1 h (with pcDNA and small DNA substrates) or 4 h (with human genomic DNA) at 37° C. The reaction was terminated with loading buffer containing 10 mM EDTA and incubation on ice. The human genomic DNA samples were immediately separated on a 1.2% pulse field certified agarose in 0.5×TBE buffer with initial switch time of 1.5 s and a final switch time of 3.5 s for 12 h at 6 V/cm. pcDNA samples were determined by 1% agarose gel. Small DNA substrates were separated on 15% or 25% TBE-urea polyacrylamide (PAGE) gel or 20% TBE PAGE gel. Then gel was stained with 0.5 μg/ml Ethidium Bromide (EtBr) followed by electrophoretic transfer to nylon membrane. Then, Biotin-labeled DNA is further detected by chemiluminescence using Chemiluminescent Nucleic Acid Detection Module (Thermo Scientific).
Structure-activity relationship (SAR) analysis was then conducted on the compounds identified as having MIF inhibitory activity. Compounds having the structure of Formula (I) were then synthesized as shown in Example 1 and tested for MIF inhibitory activity using the nuclease assay described herein and neuronal protection via a cell death assay as detailed below.

[1] = system: HeLa cells or neuronal cells; assay: Cell death assay of Example 3 (MNNG, alamarBlue; protection against parthanatos, Table 4); assay type: cell-based; conditions: 1 μM test compound, MNNG-induced cell death, alamarBlue
Experimental: Cell death assay: 200 μl of cells (HeLa cells or neuronal cells) culture (1×10^4 cells/well) were plated into the wells of a sterile 96-well cell culture plate. The cells were incubated for 18 hours at 37° C. The medium was removed and changed with 100 μl/well of 1 μM test compound. Incubate for 1 hours at 37° C. Ten μl of 500 μM MNNG (N-Methyl-N′-nitro-N-nitrosoguanidine) was added to each well. The medium was aspirated well and incubated for 15 min at 37° C. The cells were washed with the fresh medium. The medium was changed with 1 μM of test compound and incubated for 18 hours at 37° C. 10 μl/well of alamarBlue reagent was added directly to the well and incubated for 1 to 4 hours at 37° C. Fluorescence was measured using a fluorescence excitation wavelength of 560 nm and emission at 590 nm. The percentage of cell death was determined as the ratio of live to dead cells compared with the percentage of cell death in control wells to account for cell death attributed to mechanical stimulation of the cultures.

SMILES	(%) inhibition of MIF nuclease activity (MIF) [%]	(%) inhibition of cell death [1] [%]
CCC[C@@H]1NC(=O)[C@H](COC(C)(C)C)N(C)C(=O)[C@@H](Cc2ccc3ccccc3c2)NC(=O)[C@H](C)N(C)C(=O)COc2cccc(c2)[C@@H](CCc2ccc(OC)c(OC)c2)OC(=O)[C@@H]2CCCCN2C(=O)C(=O)C(C)(C)COC(=O)C=CCCN(C)C1=O [compound 19]	59.9	62.4
COCC[C@@H]1NC(=O)[C@H](COC(C)(C)C)N(C)C(=O)[C@H](Cc2ccc3ccccc3c2)NC(=O)[C@H](C)N(C)C(=O)COc2cccc(c2)[C@@H](CCc2ccc(OC)c(OC)c2)OC(=O)[C@@H]2CCCCN2C(=O)C(=O)C(C)(C)COC(=O)C=CCCN(C)C1=O [compound 20]	42.2	60.6
COc1ccc(CC[C@H]2OC(=O)[C@@H]3CCCCN3C(=O)C(=O)C(C)(C)COC(=O)C=CCCN(C)C(=O)[C@H](CC(C)C)NC(=O)[C@H](COC(C)(C)C)N(C)C(=O)[C@H](Cc3ccc4ccccc4c3)NC(=O)[C@H](C)N(C)C(=O)COc3cccc2c3)cc1OC [compound 21]	57.9	61.0
COc1ccc(CC[C@H]2OC(=O)[C@@H]3CCCCN3C(=O)C(=O)C(C)(C)COC(=O)C=CCCN(C)C(=O)[C@@H](CC(C)C)NC(=O)[C@H](COC(C)(C)C)N(C)C(=O)[C@H](Cc3ccc4ccccc4c3)NC(=O)[C@H](C)N(C)C(=O)COc3cccc2c3)cc1OC [compound 22]	61.8	56.9
COc1ccc(CC[C@H]2OC(=O)[C@@H]3CCCCN3C(=O)C(=O)C(C)(C)COC(=O)C=CCCN(C)C(=O)[C@H](Cc3ccccc3)NC(=O)[C@H](COC(C)(C)C)N(C)C(=O)[C@H](Cc3ccc4ccccc4c3)NC(=O)[C@H](C)N(C)C(=O)COc3cccc2c3)cc1OC [compound 23]	45.7	58.7
COc1ccc(CC[C@H]2OC(=O)[C@@H]3CCCCN3C(=O)C(=O)C(C)(C)COC(=O)C=CCCN(C)C(=O)[C@@H](Cc3ccccc3)NC(=O)[C@H](COC(C)(C)C)N(C)C(=O)[C@H](Cc3ccc4ccccc4c3)NC(=O)[C@H](C)N(C)C(=O)COc3cccc2c3)cc1OC [compound 24]	40.3	57.4
COc1ccc(CC[C@H]2OC(=O)[C@@H]3CCCCN3C(=O)C(=O)C(C)(C)COC(=O)C=CCCN(C)C(=O)[C@H](Cc3ccc(F)cc3)NC(=O)[C@H](COC(C)(C)C)N(C)C(=O)[C@H](Cc3ccc4ccccc4c3)NC(=O)[C@H](C)N(C)C(=O)COc3cccc2c3)cc1OC [compound 25]	25.8	59.1
COc1ccc(CC[C@H]2OC(=O)[C@@H]3CCCCN3C(=O)C(=O)C(C)(C)COC(=O)C=CCCN(C)C(=O)[C@@H]3CCCN3C(=O)[C@H](COC(C)(C)C)N(C)C(=O)[C@H](Cc3ccc4ccccc4c3)NC(=O)[C@H](C)N(C)C(=O)COc3cccc2c3)cc1OC [compound 26]	64.9	71.2
COc1ccc(CC[C@H]2OC(=O)[C@@H]3CCCCN3C(=O)C(=O)C(C)(C)COC(=O)C=CCCN(C)C(=O)[C@H](CC3CCCCC3)NC(=O)[C@H](COC(C)(C)C)N(C)C(=O)[C@@H](Cc3ccc4ccccc4c3)NC(=O)[C@H](C)N(C)C(=O)COc3cccc2c3)cc1OC [compound 27]	78.4	72.1
COc1ccc(CC[C@H]2OC(=O)[C@@H]3CCCCN3C(=O)C(=O)C(C)(C)COC(=O)C=CCCN(C)C(=O)[C@H](Cc3ccc4ccccc4c3)NC(=O)[C@H](COC(C)(C)C)N(C)C(=O)[C@H](Cc3ccc4ccccc4c3)NC(=O)[C@H](C)N(C)C(=O)COc3cccc2c3)cc1OC [compound 28]	66.6	69.6
COc1ccc(CC[C@H]2OC(=O)[C@@H]3CCCCN3C(=O)C(=O)C(C)(C)COC(=O)C=CCCN(C)C(=O)[C@H](C(C)C)NC(=O)[C@H](COC(C)(C)C)N(C)C(=O)[C@H](Cc3ccc4ccccc4c3)NC(=O)[C@H](C)N(C)C(=O)COc3cccc2c3)cc1OC [compound 29]	12.4	57.8
COc1ccc(CC[C@H]2OC(=O)[C@@H]3CCCCN3C(=O)C(=O)C(C)(C)COC(=O)C=CCCN(C)C(=O)C(c3ccccc3)NC(=O)[C@H](COC(C)(C)C)N(C)C(=O)[C@H](Cc3ccc4ccccc4c3)NC(=O)[C@H](C)N(C)C(=O)COc3cccc2c3)cc1OC (stereo partly shown) [compound 30]	18.6	51.5
COc1ccc(CC[C@H]2OC(=O)[C@@H]3CCCCN3C(=O)C(=O)C(C)(C)COC(=O)C=CCCN(C)C(=O)CNC(=O)[C@H](COC(C)(C)C)N(C)C(=O)C(c3ccccc3)NC(=O)CN(C)C(=O)COc3cccc2c3)cc1OC (stereo partly shown) [compound 31]	22.9	52.3
COc1ccc(CC[C@H]2OC(=O)[C@@H]3CCCCN3C(=O)C(=O)C(C)(C)COC(=O)C=CCCN(C)C(=O)[C@H](C)NC(=O)[C@H](COC(C)(C)C)N(C)C(=O)C(c3ccccc3)NC(=O)CN(C)C(=O)COc3cccc2c3)cc1OC (stereo partly shown) [compound 32]	11.2	54.3
COc1ccc(CC[C@H]2OC(=O)[C@@H]3CCCCN3C(=O)C(=O)C(C)(C)COC(=O)C=CCCN(C)C(=O)[C@@H](C)NC(=O)[C@H](COC(C)(C)C)N(C)C(=O)C(c3ccccc3)NC(=O)CN(C)C(=O)COc3cccc2c3)cc1OC (stereo partly shown) [compound 33]	12.6	53.4
CCC[C@@H]1NC(=O)[C@H](COC(C)(C)C)N(C)C(=O)C(c2ccccc2)NC(=O)CN(C)C(=O)COc2cccc(c2)[C@@H](CCc2ccc(OC)c(OC)c2)OC(=O)[C@@H]2CCCCN2C(=O)C(=O)C(C)(C)COC(=O)C=CCCN(C)C1=O (stereo partly shown) [compound 34]	24.2	58.4
COCC[C@@H]1NC(=O)[C@H](COC(C)(C)C)N(C)C(=O)C(c2ccccc2)NC(=O)CN(C)C(=O)COc2cccc(c2)[C@@H](CCc2ccc(OC)c(OC)c2)OC(=O)[C@@H]2CCCCN2C(=O)C(=O)C(C)(C)COC(=O)C=CCCN(C)C1=O (stereo partly shown) [compound 35]	21.5	56.3
COc1ccc(CC[C@H]2OC(=O)[C@@H]3CCCCN3C(=O)C(=O)C(C)(C)COC(=O)C=CCCN(C)C(=O)[C@H](CC(C)C)NC(=O)[C@H](COC(C)(C)C)N(C)C(=O)C(c3ccccc3)NC(=O)CN(C)C(=O)COc3cccc2c3)cc1OC (stereo partly shown) [compound 36]	18.5	51.0
COc1ccc(CC[C@H]2OC(=O)[C@@H]3CCCCN3C(=O)C(=O)C(C)(C)COC(=O)C=CCCN(C)C(=O)[C@@H](CC(C)C)NC(=O)[C@H](COC(C)(C)C)N(C)C(=O)C(c3ccccc3)NC(=O)CN(C)C(=O)COc3cccc2c3)cc1OC (stereo partly shown) [compound 37]	18.0	59.6
COc1ccc(CC[C@H]2OC(=O)[C@@H]3CCCCN3C(=O)C(=O)C(C)(C)COC(=O)C=CCCN(C)C(=O)[C@@H](Cc3ccccc3)NC(=O)[C@H](COC(C)(C)C)N(C)C(=O)C(c3ccccc3)NC(=O)CN(C)C(=O)COc3cccc2c3)cc1OC (stereo partly shown) [compound 39]	31.1	57.5
